Experiments:
[1] = Solubility of X4P-001; format: physicochemical
[2] = system: melanoma, renal cell carcinoma, and ovarian cancer; conditions: murine models; cited from earlier work
[3] = system: metastatic melanoma human tumor sample; experiment: Single-marker IHC of melanoma patient tumor samples (HALO); format: in vivo
Protocol: Single-marker IHC (CD8 and granzyme B) and multiplex IHC staining were analyzed using HALO™ spatial analysis tools, and the entire tumor area of each specimen was scored. (See Tunstall, “Quantifying Immune Cell Distribution in the Tumor Microenvironment Using HALO™ Spatial Analysis Tools,” Application Note, July […], (Indica Labs), accessed Nov. 1, 2017, on https://thepathologist.com/fileadmin/issues/App_Notes/0016-010-halo-app-note.pdf). See also Sherry et al., “Utilizing multiplex chromogenic IHC and digital image analysis to evaluate immune cell content and spatial distribution within NSCLC tumor tissue” Cancer Research (2017) 77(13) Supp: Abstract 2937. CD8 was measured using a mouse monoclonal antibody (DAKO catalog #M7103, lot #20029542). A Leica Bond RX Autostainer was used following standard protocols. For granzyme B, a mouse monoclonal antibody was used (DAKO #M7235). A Leica Bond RX Autostainer was used following standard protocols.
Single-marker IHC was also used to measure CD3, FoxP3, and Ki67. For CD3, a rabbit polyclonal antibody was used (DAKO catalog #A0452, lot #20020069). A Leica Bond RX Autostainer was used following standard protocols. For FoxP3, a mouse monoclonal antibody was used (Abcam catalog #ab20034, lot #GR251424-1). A Leica Bond RX Autostainer was used following standard protocols. […]

[4] = system: solid tumors, e.g. advanced or metastatic melanoma; experiment: Biomarker findings in tumors; format: in vivo
Excerpt: Granzyme B is associated with cell death/apoptosis mediated by cytotoxic T lymphocytes (CTLs), natural killer (NK) cells, and cytotoxic T cells. Accordingly, in some embodiments, the biomarker is an observed increase in granzyme B expression in a tumor relative to a control. In some embodiments, the cancer is a solid tumor such as advanced or metastatic melanoma. […] Accordingly, in some embodiments, the biomarker is an observed increase in CD8^+ T cells and/or CD4^+ T cells in a tumor relative to a control. In other embodiments, the biomarker is an increase in the ratio of CD8^+ T cells to Treg cells. In some embodiments, the increase is observed by immunohistochemistry or expression levels of one or both of CD8A and CD8B. In some embodiments, an increase in CD8^+ T cells and/or CD4^+ T cells or CD8^+ T cells/Treg ratio in a tumor sample from a patient who has undergone treatment with […]-001 or X4-136 correlates with an increased likelihood that the patient will benefit from continued treatment with […]-001 alone or in combination with an immunotherapeutic agent, e.g., a checkpoint inhibitor such as a PD-1 antagonist. In some embodiments, the PD-1 antagonist is selected from nivolumab and pembrolizumab, or a biosimilar or variant of such PD-1 antagonists. In some embodiments, the checkpoint inhibitor is nivolumab. In some embodiments, the checkpoint inhibitor is a nivolumab biosimilar or variant. In some embodiments, the checkpoint inhibitor is pembrolizumab. In some embodiments, the checkpoint inhibitor is a pembrolizumab biosimilar or variant. In some embodiments, the tumor is a solid tumor such as advanced or metastatic melanoma. […] In some embodiments, the biomarker is IDO1. In some embodiments, the biomarker is CXCL10. In some embodiments, the biomarker is CXCL9. In some embodiments, the biomarker is HLA-DRA. In some embodiments, the biomarker is STAT1. In some embodiments, the biomarker is IFN-γ. In some embodiments, the biomarker is two or more of IDOL, CXCL10, CXCL9, HLA-DRA, STAT1 and IFN-γ. In some embodiments, the biomarker is three or more of IDO1, CXCL10, CXCL9, HLA-DRA, STAT1 and IFN-γ. In some embodiments, the biomarker is four or more of IDOL, CXCL10, CXCL9, HLA-DRA, STAT1 and IFN-γ. In some embodiments, the biomarker is five or more of IDOL, CXCL10, CXCL9, HLA-DRA, STAT1 and IFN-γ. In some embodiments, the biomarker is all of IDOL, CXCL10, CXCL9, HLA-DRA, STAT1 and IFN-γ. In some embodiments, the biomarker is an increase of all of IDO1, CXCL10, CXCL9, HLA-DRA, STAT1 and IFN-γ. In some embodiments, an increase in one, two, three, four, five, or all of IDOL, CXCL10, CXCL9, HLA-DRA, STAT1 and IFN-γ in a tumor sample from a patient who has undergone treatment with […]-001 correlates with an increased likelihood that the patient will benefit from continued treatment with […]-001 alone or in combination with an immunotherapeutic agent, e.g., a checkpoint inhibitor such as a PD-1 antagonist. In some embodiments, the PD-1 antagonist is selected from nivolumab and pembrolizumab, or a biosimilar or variant of such PD-1 antagonists. In some embodiments, the checkpoint inhibitor is nivolumab. In some embodiments, the checkpoint inhibitor is a nivolumab biosimilar or variant. In some embodiments, the checkpoint inhibitor is pembrolizumab. In some embodiments, the checkpoint inhibitor is a pembrolizumab biosimilar or variant. In some embodiments, the tumor is a solid tumor such as advanced or metastatic melanoma. In some embodiments, the biomarker or the use thereof is one of those described in Ayers et al., Journal of Clinical Investigation 2017, 127(8), 2930-2940 [29] (“Ayers et al. (2017)”) or WO 2016/094377, each of which is hereby incorporated by reference. […] Accordingly, in some embodiments, the biomarker is maintenance or decrease of Treg levels in a tumor relative to a control. In some embodiments, the biomarker is the level of FoxP3 expression, which serves as a means to determine the Treg level. […]

[5] = solid tumors, e.g. advanced or metastatic melanoma

Q: With NCCCCN(Cc1nc2ccccc2[nH]1)[C@H]1CCCc2cccnc21 [X4P-001] as the compound, how does the solubility ([1]; aqueous buffer, pH range 3.0 to 8.0 (freely soluble)) read?
A: > 100 mg/mL

Q: And the solubility in water ([1]; water)?
A: only slightly soluble

Q: And the anti-tumor activity [2]?
A: significant anti-tumor activity, including decreased metastasis and increased overall survival

Q: And the CD8 expression ([3]; patient #5, post-dosing vs pre-dosing)?
A: visibly increased

Q: What about the “CD8+ T cells density in tumor microenvironment” value ([3]; patient #5, post-dosing, pre-dosing 1045) of the same compound?
A: 1370 per square millimeter

Q: And the “CTL signature gene expression in tumor samples or the tumor microenvironment” value ([4]; in vivo)?
A: increase

Q: What about the “IFN-γ gene signature (panel of IFN-γ related genes)” value ([4]; in vivo) of the same compound?
A: increase

Q: And the “PD-L1 expression in tumor samples and the tumor microenvironment” value ([4]; in vivo)?
A: increase

Q: And the “granzyme B (GZMB) expression in cancers” value [4, 5]?
A: increases

Q: What about the “levels of Treg cells” value [4, 5] of the same compound?
A: without significantly increasing

Q: And the “levels of macrophages in the tumor” value [4, 5]?
A: without significantly modulating

Q: What about the “observed numbers of CD8+ T cells and/or CD4+ T cells in cancers” value [4, 5] of the same compound?
A: increases

Q: What about the “levels of the VISTA panel of biomarkers” value ([4]; tumor samples and the tumor microenvironment) of the same compound?
A: modulate

From patent publication US20210349099A1, “CANCER BIOMARKERS AND METHODS OF USE THEREOF” (X4 Pharmaceuticals, Inc., priority 2017, published 2021)
